Molecules are shown by their SMILES.

One assay deals with T1, AGE-BSA (Bos taurus, UniProt P02769).
T1 construct: Bovine serum albumin (fraction V) (BSA); from tissue; host or cells: bovine serum (fraction V albumin)
T1 sequence (P02769 25-607): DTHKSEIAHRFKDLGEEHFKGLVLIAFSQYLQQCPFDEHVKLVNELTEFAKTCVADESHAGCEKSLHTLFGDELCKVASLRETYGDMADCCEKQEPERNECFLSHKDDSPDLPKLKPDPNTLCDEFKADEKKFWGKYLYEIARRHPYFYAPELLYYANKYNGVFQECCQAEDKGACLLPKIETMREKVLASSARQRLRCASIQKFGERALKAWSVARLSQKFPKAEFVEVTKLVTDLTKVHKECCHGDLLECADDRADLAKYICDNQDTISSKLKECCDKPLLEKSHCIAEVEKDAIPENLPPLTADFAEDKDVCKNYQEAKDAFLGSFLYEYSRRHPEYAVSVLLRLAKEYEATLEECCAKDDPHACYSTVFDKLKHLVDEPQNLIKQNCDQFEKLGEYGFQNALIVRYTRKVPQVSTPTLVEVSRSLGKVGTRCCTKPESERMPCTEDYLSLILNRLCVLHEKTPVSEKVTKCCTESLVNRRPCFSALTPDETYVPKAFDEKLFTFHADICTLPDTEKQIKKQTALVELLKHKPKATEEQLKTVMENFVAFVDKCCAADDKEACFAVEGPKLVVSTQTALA
The assay can be described thus: In-vitro screening for AGE-breaking activity (ELISA on 16 weeks AGE-BSA). Format: biochemical, bovine. Particulars: Concentration 1 mM; 10µg/ml 16 weeks AGE-BSA, 37°C, 24 hours. A general note: An ELISA detects its analyte on a solid surface through an enzyme-linked reagent.
Experimental: • Materials: • Bovine serum albumin (fraction V) (BSA) • Glucose, analytical grade • Phosphate buffered saline (PBS) • Equipment: • Microplate ELISA Reader - Spectramax Plus (Molecular Devices, USA) • Microplate washer, (Bio -Tec Instruments, USA) • pH meter Methods of experiment: Elisa (Enzyme Linked Immunosorbent Assay) 160 mg/ml of protein, bovine serum albumin, BSA and 1.6M glucose sugar were dissolved in phosphate buffered saline, PBS. Sodium azide was added at 0.02% concentration as a preservative. The solution was filtered asceptically through a 0.22 µM filter and kept for aging at 37°C for 16 weeks. After 16 weeks the solution was dialyzed against PBS, aliquoted and stored at - 20°C.
To determine the AGE breaking activity, 10µg/ml of the 16 weeks AGE-BSA was incubated with different concentrations of the test compounds at 37°C for 24 hours and AGE breaking activity of the test compounds by ELISA was determined. […] Different concentrations of 16 weeks AGE-BSA were coated on a microtitre plate as standard. Each concentration is coated in triplicates. • 2. The test samples were coated on microtitre plate at a concentration of 5 ng. to 20 ng per well in triplicates. • 3. The plate was incubated at 37°C for one hour. • 4. After incubation the plate was washed with PBST (PBS with 0.05% Tween 20). • 5. Blocking with 5% skimmed milk in PBS at 37°C for one hour was done. • 6. The plate was washed with PBST. • 7. Primary antibody against AGE-BSA was added and the plate is incubated at 37°C for one hour. • 8. The plate was washed with PBST • 9. Secondary antibody anti rabbit HRPO (Horse-Radish Per Oxidase) conjugate was added and the plate is incubated at 37°C for one hour. • 10. The plate was washed with PBST. • 11. Colour development with OPD (orthophenylenediamine dihydrochloride) and hydrogen peroxide was done. • 12. OD (optical density) at (450nm reading - 620nm reading) was measured after incubation at 37°C for 15 minutes with Microplate ELISA Reader.
The breaker activity of the compounds were determined by the following formula: % Breaker activity =(OD450-620 Control - OD450-620 Test)/(OD450-620 Control)x 100 [formula]
In the case of `NC(=O)c1cc(C(=O)NNC(=O)c2ccc[n+](CC(=O)c3cccs3)c2)c[n+](CC(=O)c2cccs2)c1` [Compound 42, 1-[1-(2-thien-2'-yl-2-oxoethyl)-5-aminocarbonyl-3-carbonylpyridinium]-2-[1-(2-Thien-2'-yl-2-oxoethyl)-3-carbonylpyridinium] hydrazine dichloride], the % breakage of AGE-BSA crosslinks at 1000 µM was 95.4%.

On to `CS(=O)(=O)NNC(=O)c1ccc[n+](CC(=O)c2ccc([N+](=O)[O-])s2)c1` [Compound 49, 1-2-(5-nitro-thien-2-yl)-2-oxoethyl)-3-(methanesulfonyl hydrazino carbonyl) pyridinium chloride], for which the % breakage of AGE-BSA crosslinks at 1000 µM is 42%.

In turn, `Cc1ccc(C(=O)NNS(C)(=O)=O)c[n+]1CC(=O)c1cccs1` [Compound 39, 1-(2-thien-2'-yl-2-oxoethyl)-3-(methanesulfonyl hydrazinocarbonyl) -6-methyl pyridinium bromide] came in with a % breakage of AGE-BSA crosslinks at 1000 µM of 77.7%.

The same assay, now with this note: Concentration 2.5 mM; 10µg/ml 16 weeks AGE-BSA, 37°C, 24 hours.
`CS(=O)(=O)NNC(=O)c1cc(Br)c[n+](CC(=O)c2cccs2)c1` [Compound 35, 1-(2-thien-2'-yl-2-oxoethyl)-3-(methanesulfonyl hydrazinocarbonyl)-5-bromo pyridinium bromide] registered a % breakage of AGE-BSA crosslinks at 2500 µM of 29.4%.

The compound `Cc1ccc(C(=O)NNC(=O)c2ccc[n+](CC(=O)c3cccs3)c2)c[n+]1CC(=O)c1cccs1` [Compound 31, 1-[1-(2-thien-2'-yl-2-oxoethyl)-6-methyl-3-carbonylpyridinium]-2-[1-(2-Thien-2'-yl-2-oxoethyl)-3-carbonylpyridinium] hydrazine dichloride] returned a % breakage of AGE-BSA crosslinks at 2500 µM of 85.7%.

Staying with this assay, now noted: Concentration 10 mM; 10µg/ml 16 weeks AGE-BSA, 37°C, 24 hours.
On to `O=C(NNS(=O)(=O)C(F)(F)F)c1ccc[n+](CC(=O)c2cccs2)c1` [Compound 50, 1-(2-thien-2'-yl-2-oxoethyl)-3-(trifluoromethanesulfonyl hydrazinocarbonyl) - pyridinium bromide], for which the % breakage of AGE-BSA crosslinks at 10000 µM was determined as 92.6%.

In the case of `CCOC(=O)C1CCCN1C(=O)C[n+]1cccc(C(=O)NNC(=O)c2ccc[n+](CC(=O)N3CCCC3C(=O)OCC)c2)c1` (stereo not drawn) [Compound 41, N,N'-bis[3-carbonyl-1-(2-(2-ethoxycarbonylpyrrolidin-1-yl)-2-oxoethyl)pyridinium] hydrazine dichloride], the % breakage of AGE-BSA crosslinks at 10000 µM was 20.3%.

`Cc1ccc(C(=O)C[n+]2cccc(C(=O)NNC(=O)c3ccc[n+](CC(=O)c4ccc(C)s4)c3)c2)s1` [Compound 40, N,N'-bis[3-carbonyl-1-(2-(5-methyl-thien-2-yl)-2-oxoethyl)pyridinium] hydrazine dichloride] showed a % breakage of AGE-BSA crosslinks at 10000 µM of 82%.

Take `CS(=O)(=O)NNC(=O)c1ccc[n+](CC(=O)c2cccs2)c1` [Compound 27, 1-(2-thien-2'-yl-2-oxoethyl)-3-(methanesulfonyl hydrazinocarbonyl) pyridinium chloride]: the % breakage of AGE-BSA crosslinks at 10000 µM is 17.5%.

Regarding `COCCOC(=O)c1ccc[n+](CC(=O)c2ccc(Cl)cc2Cl)c1` [Compound 4, 1-(2-(2',4'-dichlorophenyl)-2-oxoethyl)-3-(2(methoxy)ethyloxycarbonyl) pyridinium bromide], the % breakage of AGE-BSA crosslinks at 10000 µM came out at 13%.

`O=C(NNC(=O)c1ccc[n+](CC(=O)c2ccc(Cl)s2)c1)c1ccc[n+](CC(=O)c2ccc(Cl)s2)c1` [Compound 44, N,N'-bis[3-carbonyl-1-(2-(5-chloro-thien-2-yl)-2-oxoethyl)pyridinium] hydrazine dichloride] returned a % breakage of AGE-BSA crosslinks at 10000 µM of 78.4%.

For the compound `COCCNC(=O)c1cc(Br)c[n+](CC(=O)c2cccs2)c1` [Compound 29, 1-(2-thien-2'-yl-2-oxoethyl)-3-((2-methoxyethyl)aminocarbonyl)-5-bromo pyridinium chloride], the % breakage of AGE-BSA crosslinks at 10000 µM was determined as 32.4%.

On to `O=C(NNC(=O)c1ccc[n+](CC(=O)c2ccco2)c1)c1ccc[n+](CC(=O)c2ccco2)c1` [Compound 14, N, N' - bis [3-carbonyl-1-(2-furan-2'-yl-2-oxoethyl)pyridinium] hydrazine dibromide], for which the % breakage of AGE-BSA crosslinks at 10000 µM is 14%.

With `CCOC(=O)NNC(=O)c1ccc[n+](CC(=O)c2cccs2)c1` [Compound 36, 1-(2-thien-2'-yl-2-oxoethyl)-3-(ethoxycarbonyl hydrazinocarbonyl) pyridinium bromide], the % breakage of AGE-BSA crosslinks at 10000 µM worked out at 33.4%.

`O=C(C[n+]1cccc(C(=O)NCCOC(=O)c2ccccc2)c1)Nc1ccccc1` [Compound 5, 1-(2-phenylamino-2-oxoethyl)-3-((benzoyloxy)ethylaminocarbonyl) pyridinium chloride] displayed a % breakage of AGE-BSA crosslinks at 10000 µM of 37%.

Consider `CC(C)S(=O)(=O)NNC(=O)c1ccc[n+](CC(=O)c2cccs2)c1` [Compound 32, 1-(2-thien-2'-yl-2-oxoethyl)-3-(isopropylsulfonyl hydrazinocarbonyl) pyridinium bromide], for which the % breakage of AGE-BSA crosslinks at 10000 µM is 31.4%.

Consider `O=C(NNC(=O)c1cccnc1Cl)c1ccc[n+](CC(=O)c2cccs2)c1` [Compound 24, 1-(2-thien-2'yl-2-oxoethyl)-3-(2-(2-chloro-3-pyridoylhydrazinocarbonyl) -pyridinium chloride], for which the % breakage of AGE-BSA crosslinks at 10000 µM came out at 12.5%.

Staying with this assay, now noted: Concentration 25 mM; 10µg/ml 16 weeks AGE-BSA, 37°C, 24 hours; read-out: % Breakage.
On to `COCCOC(=O)c1ccc[n+](CC(=O)c2ccc(Cl)cc2Cl)c1` [Compound 4, 1-(2-(2',4'-dichlorophenyl)-2-oxoethyl)-3-(2(methoxy)ethyloxycarbonyl) pyridinium bromide], for which the inhibition at 25000 µM came out at 41%.

Regarding `O=C(C[n+]1cccc(C(=O)NCCOC(=O)c2ccccc2)c1)Nc1ccccc1` [Compound 5, 1-(2-phenylamino-2-oxoethyl)-3-((benzoyloxy)ethylaminocarbonyl) pyridinium chloride], the inhibition at 25000 µM stood at 90%.

Staying with this assay, now noted: read-out: % Breakage.
`CS(=O)(=O)NNC(=O)c1ccc[n+](CC(=O)c2cc([N+](=O)[O-])cs2)c1` [Compound 46, 1-(2-(4-nitro-thien-2-yl)-2-oxoethyl)-3-(methanesulfonyl hydrazinocarbonyl) pyridinium bromide]: the inhibition at 10000 µM is 60.9%.

As to `CCOC(=O)C1CSCN1C(=O)C[n+]1cccc(C(=O)NNS(C)(=O)=O)c1` (stereo not drawn) [Compound 43, 1-(2-(4-carbethoxy-thiazolidin-3-yl)-2oxoethyl)-3-(methanesulfonyl hydrazinocarbonyl) pyridinium chloride], the inhibition at 10000 µM was 25.1%.

With `Cc1ccc(C(=O)C[n+]2cccc(C(=O)NNS(C)(=O)=O)c2)s1` [Compound 45, 1-(2-(5-methyl-thien-2-yl)-2-oxoethyl)-3-(methanesulfonyl hydrazinocarbonyl) pyridinium chloride], the inhibition at 10000 µM amounted to 25.2%.

On to `CS(=O)(=O)NNC(=O)c1ccc[n+](CC(=O)c2ccc(Cl)s2)c1` [Compound 37, 1-(2-(5-chloro-thien-2-yl)-2-oxoethyl)-3-(methanesulfonyl hydrazinocarbonyl) pyridinium bromide], for which the inhibition at 10000 µM was 40.9%.

Regarding `CCOC(=O)C1CCCN1C(=O)C[n+]1cccc(C(=O)NNS(C)(=O)=O)c1` (stereo not drawn) [Compound 34, 1-(2-(2-ethoxycarbonylpyrrolidin-1-yl)-2-oxoethyl)-3-(methanesulfonyl hydrazinocarbonyl) pyridinium chloride], the inhibition at 10000 µM stood at 25.3%.

For the compound `COCCNC(=O)c1ccc[n+](CC(=O)NC2CC2)c1` [Compound 22, 1-(2-cyclopropylamino-2-oxoethyl)-3-(2-methoxyethylaminocarbonyl)-pyridinium chloride], the inhibition at 10000 µM was 12.4%.

In the case of `O=C(C[n+]1ccc(C(=O)NCCOC(=O)c2ccccc2)cc1)Nc1ccccc1` [Compound 48, 1-(2-phenylamino-2-oxoethyl)-4-[2-(benzoyloxy)ethylaminocarbonyl] pyridinium chloride], the inhibition at 10000 µM came to 19.1%.

Turning to `CC(C)NC(=O)C[n+]1cccc(C(=O)NNS(C)(=O)=O)c1` [Compound 25, 1-(2-isopropylamino-2-oxoethyl)-3-(2-methylsulfonylhydrazinocarbonyl) -pyridinium chloride], the inhibition at 10000 µM is 10.8%.

As for `O=C(C[n+]1ccsc1)c1ccccc1` [PTB, N- phenacyl thiazolium bromide, reference compound], the inhibition at 10000 µM was 27% and the inhibition at 20000 µM worked out at 47%.

For the compound `CS(=O)(=O)NNC(=O)c1ccc[n+](CC(=O)N2CCC(Cc3ccccc3)CC2)c1` [Compound 33, 1-(2-(4-benzylpiperidin-1-yl)-2-oxoethyl)-3-(methanesulfonyl hydrazinocarbonyl) pyridinium chloride], the inhibition at 10000 µM was 20.9%.

With `O=C(C[n+]1cccc(C(=O)NNc2ccccc2)c1)Nc1ccccc1` [Compound 47, 1-(2-phenylamino-2-oxoethyl)-3-(phenyl hydrazinocarbonyl) pyridinium chloride], the inhibition at 2500 µM stood at 68.3%.

For the compound `O=C(NNC(=O)c1ccc[n+](CC(=O)c2cc([N+](=O)[O-])cs2)c1)c1ccc[n+](CC(=O)c2cc([N+](=O)[O-])cs2)c1` [Compound 38, N,N'-bis[3-carbonyl-1-(2-(4-nitro-thien-2-yl)-2-oxoethyl)pyridinium] hydrazine dichloride], the inhibition at 10000 µM is 75.9%.

As to `COCCNC(=O)c1ccc[n+](CC(=O)c2ccc(Cl)cc2Cl)c1` [Compound 20, 1-(2',4'-dichloro-phenyl-2-oxoethyl)-3-(2-methoxyethylaminocarbonyl)-pyridinium bromide], the inhibition at 5000 µM turned out to be 17.7%.

Values taken from EP1243581A1, “Pyridinium compounds useful for the treatment of AGE-related diseases” (Torrent Pharmaceuticals Ltd, priority 2001, dated 2002).
